Type in all cases: biochemical
The target of series [1] is T1, purified transglutaminase originating from Crassostrea gigas (Magallana gigas, UniProt A0A8W8K4D7).
T1 construct: Met-less mature form starts […]; recombinant enzyme from E. coli or yeast reported equivalent
The settings on record: final concentration 1 mM; for Residual Activity: treated at 25° C. for 10 minutes, reaction 37° C. 30 minutes. Here is the method:
The activity of the transglutaminase is determined by reacting the enzyme with dimethylated casein and monodansylcadaverine as substrates and measuring an increase in the fluorescent intensity of casein due to the incorporation of monodansylcadaverine into the dimethylated casein. The composition of the reaction solution is as follows:
To 2.4 ml of the foregoing reaction solution, there is added 20 to 50 μl of the transglutaminase solution followed by carrying out the reaction at 37° C. for 30 min, terminating the reaction by addition of 100 μl of a 500 mM EDTA solution and then determining the fluorescent intensity of the reaction solution (using a device: RF-1500 available from Shimadzu Corporation; excitation wavelength: 350 nm; wavelength of emitted fluorescent rays: 480 nm). In respect of the unit of the activity, that required for increasing the fluorescent intensity by 1.0 within one minute is herein defined to be one unit.
The purified transglutaminase was treated at a temperature of 25° C. for 10 minutes while adding each of a variety of enzyme activity-inhibitory agents and each metal ion in such an amount that the final concentration thereof was equal to 1 mM and then the reaction was carried out at a temperature of 37° C. for 30 minutes using dimethylated casein and monodansylcadaverine as substrates.

The target in series [2] is T1, purified transglutaminase originating from Crassostrea gigas. The settings on record: synthetic substrate and hydroxylamine. The text has this:
The inventors have investigated the enzyme activity of the purified transglutaminase using a variety of synthetic substrates and hydroxylamine.

Series [3] concerns dimethylated casein and monodansylcadaverine. The experiment in a line: Effect of NaCl and Ca2+ on enzyme activity. The settings on record: increasing NaCl concentration.

The values that follow come from patent US5736356A, “Transglutaminase originating from Crassostrea gigas” (Ajinomoto Co., Inc., priority 1994, dated 1998).

“Also recorded” adds a separate entry of the source. Where two headings read alike, the source gives them in different places. Residues, ends and D or L forms follow the SMILES beside them. No end group written: not given here. *: point of attachment. Cbz = O=C(OCc1ccccc1)*

T1 sequence (A0A8W8K4D7 entry or part of it with the stated changes): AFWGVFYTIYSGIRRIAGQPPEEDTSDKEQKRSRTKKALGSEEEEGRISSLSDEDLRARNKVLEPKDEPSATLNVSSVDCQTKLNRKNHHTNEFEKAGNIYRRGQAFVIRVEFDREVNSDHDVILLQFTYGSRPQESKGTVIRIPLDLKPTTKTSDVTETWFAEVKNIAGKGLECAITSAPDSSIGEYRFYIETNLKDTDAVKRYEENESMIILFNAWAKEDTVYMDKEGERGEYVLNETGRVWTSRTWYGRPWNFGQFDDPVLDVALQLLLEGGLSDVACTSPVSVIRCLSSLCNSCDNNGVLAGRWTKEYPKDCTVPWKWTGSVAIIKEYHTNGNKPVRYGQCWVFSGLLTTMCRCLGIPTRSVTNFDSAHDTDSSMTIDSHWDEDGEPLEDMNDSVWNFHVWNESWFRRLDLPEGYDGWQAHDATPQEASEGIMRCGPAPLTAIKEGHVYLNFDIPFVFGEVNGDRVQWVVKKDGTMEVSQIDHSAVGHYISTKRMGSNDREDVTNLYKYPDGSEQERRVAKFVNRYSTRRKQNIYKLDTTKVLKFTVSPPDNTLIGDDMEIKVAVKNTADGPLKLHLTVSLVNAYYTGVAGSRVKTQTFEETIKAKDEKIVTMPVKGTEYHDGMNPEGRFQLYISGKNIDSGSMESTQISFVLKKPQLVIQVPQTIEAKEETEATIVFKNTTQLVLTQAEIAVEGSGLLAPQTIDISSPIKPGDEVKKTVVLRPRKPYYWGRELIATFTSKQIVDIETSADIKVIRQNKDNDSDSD

On to `[Ni+2]` [Ni^2+], for which the “Residual Activity” value in series [1] is 67.9%.
With `O=C(O)CI` [Monoiodoacetic Acid], the “enzyme activity-inhibitory effect (in words)” value in series [1] was “high enzyme activity-inhibitory effect”; in series [1] (listed as momoiodo acetic acid) it was “inhibited”.
Take `O=C(O)c1cc[c]([Hg][Cl])cc1` [p-Chloromercuribenzoic Acid]: in series [1], the “enzyme activity-inhibitory effect (in words)” value is “high enzyme activity-inhibitory effect; also recorded: inhibited” and the “Residual Activity” value is 10.5%.
Consider `[Pb+2]` [Pb^2+], for which, in series [1], the “enzyme activity-inhibitory effect (in words)” value is “strongly inhibited the enzyme activity” and the “Residual Activity” value came to 55.5%.
Regarding `O=S(=O)(F)Cc1ccccc1` [Phenylmethylsulfone Fluoride], in series [1], the “enzyme activity-inhibitory effect (in words)” value is “almost no enzyme activity-inhibitory effect” and the “Residual Activity” value was determined as 96.4%.
As for `[Co+2]` [Co^2+], in series [1], the “enzyme activity-inhibitory effect (in words)” value is “strongly inhibited the enzyme activity” and the “Residual Activity” value was 54.3%.
Regarding glycyl glutamyl glycine [Gly-Gln-Gly], the “enzyme activity with synthetic substrate (in words)” value is “did not catalyze the reaction” in series [2] and “did not show any enzyme activity” in series [2] (listed as glycyl glutamyl glycine).
As to `[Mn+2]` [Mn^2+], the “Residual Activity” value in series [1] was 84.7%.
For the molecule “CBZ-Gln-Gln-Gly: synthetic substrate (Cbz-Gln-Gln-Gly)”, the “enzyme activity with synthetic substrate (in words)” value in series [2] is recorded as “catalyzed the reaction”.
On to `CCN1C(=O)C=CC1=O` [N-Ethylmaleimide], for which, in series [1], the “enzyme activity-inhibitory effect (in words)” value is on record as “high enzyme activity-inhibitory effect; also recorded: inhibited”.
On to `[Mg+2]` [Mg^2+], for which, in series [1], the “enzyme activity-inhibitory effect (in words)” value is on record as “almost no enzyme activity-inhibitory effect” and the “Residual Activity” value was 98.2%.
“CBZ-Gly- Gly-Gln-Gly: synthetic substrate, SEQ ID NO: 143 (Cbz-GGQG)”: the “enzyme activity with synthetic substrate (in words)” value in series [2] was “catalyzed the reaction”.
As for `NC(=O)CC[C@H](NC(=O)OCc1ccccc1)C(=O)O` [CBZ-Gln, benzyloxycarbonyl glutamine], the “enzyme activity with synthetic substrate (in words)” value in series [2] is recorded as “did not catalyze the reaction”; in series [2] (listed as benzyloxycarbonyl glutamine), “did not show any enzyme activity”.
In the case of `[Zn+2]` [Zn^2+], the “Residual Activity” value in series [1] is 65.0%.
On to `[Ba+2]` [Ba^2+], for which, in series [1], the “enzyme activity-inhibitory effect (in words)” value was “almost no enzyme activity-inhibitory effect” and the “Residual Activity” value is given as 102%.
For the molecule `CCOC(=O)CNC(=O)[C@H](CCC(N)=O)NC(=O)OCc1ccccc1` [CBZ-Gln-Gly-OEt] (Cbz-Gln-Gly-OEt), the “enzyme activity with synthetic substrate (in words)” value in series [2] was “catalyzed the reaction”.
For `NC(=O)C[C@H](NC(=O)OCc1ccccc1)C(=O)NCC(=O)O` [CBZ-Asn-Gly, benzyloxycarbonyl asparaginyl glycine] (Cbz-Asn-Gly-OH), the “enzyme activity with synthetic substrate (in words)” value is recorded as “did not catalyze the reaction” in series [2] and “did not show any enzyme activity” in series [2] (listed as benzyloxycarbonyl asparaginyl glycine).
Turning to `[Sr+2]` [Sr^2+], in series [1], the “enzyme activity-inhibitory effect (in words)” value is recorded as “almost no enzyme activity-inhibitory effect” and the “Residual Activity” value is given as 93.8%.
In the case of `NC(=O)CC[C@H](NC(=O)OCc1ccccc1)C(=O)NCC(=O)O` [CBZ-Gln-Gly, benzyloxycarbonyl glutaminyl glycine] (Cbz-Gln-Gly-OH), the “enzyme activity with synthetic substrate (in words)” value in series [2] is on record as “catalyzed the reaction”; in series [2] (listed as benzyloxycarbonyl glutaminyl glycine), “showed the enzyme activity”.
For the molecule `[Cu+2]` [Cu^2+], in series [1], the “enzyme activity-inhibitory effect (in words)” value was “strongly inhibited the enzyme activity; also recorded: extremely high; also recorded: inhibited” and the “Residual Activity” value came to 8.8%.

B1: transglutaminase originating from a microorganism: TGase originating from a microorganism; probably the Streptoverticillium calcium-independent BTG (protein, UniProt P81453 77-407, looked up)
Protein-glutamine …: DSDDRVTPPAEPLDRMPDPYRPSYGRAETVVNNYIRKWQQVYSHRDGRKQQMTEEQREWLSYGCVGVTWVNSGQYPTNRLAFASFDEDRFKNELKNGRPRSGETRAEFEGRVAKESFDEEKGFQRAREVASVMNRALENAHDESAYLDNLKKELANGNDALRNEDARSPFYSALRNTPSFKERNGGNHDPSRMKAVIYSKHFWSGQDRSSSADKRKYGDPDAFRPAPGTGLVDMSRDRNIPRSPTSPGEGFVNFDYGWFGAQTEADADKTVWTHGNHYHAPNGSLGAMHVYESKFRNWSEGYSDFDRGAYVITFIPKSWNTAPDKVKQGWP
For the molecule B1, the “effect of NaCl concentration on enzyme activity (in words)” value in series [3] is reported as “did not show any increase”.
